# Measurements taken from publication PMC12040169 (PLOS Biology, 2025).
# Assay: in vitro
# Details: human, hela cells
# [1] = % viability, bulk resorufin, single well
Structure (SMILES),"viability at 28.5 h, 10 µM (% viability)",further results
Cn1c(Cc2nn(C)c(=O)c3ccccc23)nnc1SCC(=O)C(C)(C)C [CBK010985],105%,–
CC12CCCC(=O)N1C(CO)C(c1ccccc1)O2 (stereo not shown) [CBK011013],91.2%,–
CC(C)(C)C(=O)CSc1nnc(Cn2cnc(Cl)c2Cl)o1 [CBK011055],81.2%,–
Cn1nnnc1Sc1cc(=O)n(C)c(=O)n1C [CBK011072],114%,–
c1ccc(-c2nnc(Cn3cncn3)o2)cc1 [CBK011113],88%,–
COc1ccc(CN2C(=O)CS(=O)(=O)CC2=O)cc1OC [CBK011127],86.4%,–
COc1nc(Cl)nc(Oc2ccc(F)cc2)n1 [CBK011279],122%,–
N#Cc1nccnc1N1CCN(Cc2ccc3c(c2)OCO3)CC1 [CBK011284],83.3%,–
O=c1cc2ncc(-c3ccncc3)cn2[nH]1 [CBK011300],98.3%,–
COc1ccc2c(c1)N1CCCN=C1N2C [CBK011358C],90.8%,–
CSCCC(C(=O)O)N1CNC(=S)NC1 (stereo not shown) [CBK011382],92.3%,–
O=C1CCCCC1SCn1nnc2ccccc21 (stereo not shown) [CBK011412],94.8%,–
COc1cc(OC)c2c(c1)OCC1CON(C)C21 (stereo not shown) [CBK011446],95.6%,–
CNc1snc(N2CCOCC2)c1C#N [CBK011453],93%,–
COc1ccc2c(c1OC)C(=O)N1C2SC(C)(C)C1C(=O)O (stereo not shown) [CBK011479],98.9%,–
O=C(NC1CCCCC1)C1CCC1 [CBK011511],96.5%,–
CC(C)C[C@H]([C@@H]1C[C@@H](C(C)C)C(=O)O1)N1C(=O)c2ccccc2C1=O [CBK011526],93.9%,–
CCN(CC)Cc1nccn1-c1ccc([N+](=O)[O-])cc1C(=O)c1ccccc1Cl [CBK011562F],105%,–
COc1ccc(C2CNC(=O)C2)cc1OC1CCCC1 (stereo not shown) [CBK011603],86.5%,–
CCC(C)C(=O)O[C@H]1C[C@@H](C)C=C2C=C[C@H](C)[C@H](CC[C@@H]3C[C@@H](O)CC(=O)O3)[C@H]21 (stereo partly shown) [CBK011646],85.2%,–
O=C(O)Cc1ccc(-c2ccccc2)cc1 [CBK011660],104%,–
O=c1[nH]c(=O)n(C2CC(O)C(CO)O2)cc1F (stereo not shown) [CBK011695],49.6%,–
CCC(C(=O)O)c1ccc(-n2sc3ccccc3c2=O)cc1 (stereo not shown) [CBK011773],105%,–
Cc1nc(Cl)c(C(=O)NCCc2ccc(S(=O)(=O)NC(=O)NC3CCCCC3)cc2)nc1C [CBK011777],91.3%,–
O=C(COc1cccc(Cl)c1)NCCc1ccc(S(=O)(=O)NC(=O)NC2CCCCC2)cc1 [CBK011798],93.4%,–

Structure (SMILES),"viability at 28.5 h, 10 µM (% viability)",further results
CCCNCCc1ccc2c(c1)C(=O)N(Cc1ccc(OC)cc1)C2=O [CBK011826C],87.3%,–
CNc1cc(NS(=O)(=O)c2ccc(N)cc2)nc(NC)n1 [CBK011865C],96.1%,–
COc1ccc(C(O)CNC(C)C)c2c(C)c(C)oc12 (stereo not shown) [CBK011885C],97%,–
O=C(NC1CCCCC1)NS(=O)(=O)c1ccc(CCNC(=O)c2cccs2)cc1 [CBK011888],86.3%,–
NCC(=O)N(CCC1CCCC1)c1cccc2ccccc12 [CBK011922C],88.2%,–
CNC(Cc1ccccc1)c1ccccc1OC (stereo not shown) [CBK011943C],–,"viability at 28.5 h, 10 µM [1]: 88.6%"
COc1ccccc1C(C)CN(C)C (stereo not shown) [CBK011948C],91.2%,–
CCCCOc1ccc(C(=O)OC(Cc2cccc3ccccc23)CN(CC)CC)cc1 (stereo not shown) [CBK011965C],87.7%,–
Cc1cn(C2CC(O)C(CO)O2)c(=O)[nH]c1=O (stereo not shown) [CBK011998],93.3%,–
O=C(O)CCCCC1SCC2NC(=O)NC21 (stereo not shown) [CBK012026G],105%,–
Cc1cc(N)cc(C)c1O [CBK012062C],89.9%,–
CC(=O)c1c[nH]c(=O)[nH]c1=O [CBK012093],115%,–
CCN(CC)C(=O)c1cccc(OC)c1 [CBK012105],101%,–
CC(C)(CN)c1ccccc1 [CBK012106C],81.6%,–
O=C(O)CCN1CCCCC1 [CBK012168C],103%,–
COc1ccc(CC(=O)c2ccc(O)cc2O)cc1 [CBK012203],88.2%,–
CN(C)CCN(Cc1ccccc1)c1ccccc1 [CBK012223C],114%,–
CS(=O)(=O)NC1CCCCC1 [CBK012234],89.3%,–
CC(=O)Nc1ccc(/C=N/c2ccccc2)cc1 [CBK012258],96.4%,–
OCC1OC(n2cnc3c(S)ncnc32)C(O)C1O (stereo not shown) [CBK012260],64.5%,–
C1=C(c2ccccc2)CCNC1 [CBK012268C],–,"viability at 28.5 h, 10 µM [1]: 104%"
Nc1nc(N2CCCCC2)nc2ccccc12 [CBK012270],114%,–
Cc1cccc(C(N)=O)c1O [CBK012294],112%,–
Cc1cc2nc3c(nc2cc1C)CCNCC3 [CBK012302],91.1%,–
CCCCC(c1ccc(Cl)cc1)N(CCN(C)C)c1ccccn1 (stereo not shown) [CBK012315F],86.3%,–

Structure (SMILES),"viability at 28.5 h, 10 µM (% viability)",further results
CNC(=O)Oc1ccc(C)cc1C(=O)N(C)C [CBK012319],–,"viability at 28.5 h, 10 µM: 111%"
CCOC(=O)NC(=O)c1ccccc1 [CBK012359],108%,–
CC(=O)Oc1cc2c(c(OC(C)=O)n1)C(C)NC2=O (stereo not shown) [CBK012390],94.9%,–
O=C(O)CC1CCC2(CC1)Cc1ccccc1C2 [CBK012397],89.8%,–
CC(C(=O)N(C)C)n1cccc1 (stereo not shown) [CBK012421],86.4%,–
COC(=O)c1c(C)c(C(C)=O)n(C)c1C [CBK012459],117%,–
COc1ccc(CCNCC2OCCCc3cc(OC)c(OC)cc32)cc1OC (stereo not shown) [CBK012466C],94%,–
CN1CCCC(C(O)c2ccccc2)C1 (stereo not shown) [CBK012472],96.9%,–
CN(C)CCOC1OC(CO)C(O)C(O)C1O (stereo not shown) [CBK012476C],94.4%,–
Cc1[nH]c2c(C(=O)O)cccc2c1-c1ccccc1 [CBK012486],103%,–
O=C(NCCNCc1ccccc1)c1ccccc1 [CBK012505],119%,–
CCC1=C(c2ccc(Cl)cc2)CCC(C(=O)NCCCN(C)C)C1C (stereo not shown) [CBK012578],74.1%,–
CN(C(=O)Cc1ccccc1)c1ccccc1 [CBK012581],103%,–
CN(C)CCn1c(=O)c2c(ncn2C)n(C)c1=O [CBK012590],115%,–
CC(=O)NCC1CN(c2ccc3c(c2)CCN3C(=O)OC(C)(C)C)C(=O)O1 (stereo not shown) [CBK012600],99.7%,–
Cn1c(-c2cc(=O)c(C(=O)O)c[nH]2)n[nH]c1=O [CBK012603],79.6%,–
N#C/N=C(/Nc1cccnc1)Oc1ccccc1 [CBK012612],87.3%,–
O=C(c1ccccc1Nc1cccc(C(F)(F)F)c1)N1CCN(c2ccccn2)CC1 [CBK012634],94.4%,–
Clc1ccc(-n2ccnc2)cc1 [CBK012658],107%,–
COc1ccc(C2N(N3C(=O)CC(=O)NC3=O)C(=O)CS2(=O)=O)cc1OC (stereo not shown) [CBK012702],94.8%,–
Cc1cc(N2CCOCC2)nc(N)n1 [CBK012710],99.1%,–
O=c1cc(O)cc(CCc2ccccc2)o1 [CBK012714],117%,–
O=C(NCO)c1ccccc1O [CBK012717],93.9%,–
CN(c1cncc(Cl)n1)C1CCN(Cc2ccccc2)CC1 [CBK012767F],77.7%,–
CCC1(CCc2ccccc2)CC(O)=CC(=O)O1 (stereo not shown) [CBK012790],98.5%,–

Structure (SMILES),"viability at 28.5 h, 10 µM (% viability)",further results
CCN(Cc1ccccc1)C(=O)Nc1ccccc1 [CBK012816],94.9%,–
O=C(c1ccccc1)N1CCCCC1 [CBK012821],99.1%,–
Cc1nnsc1[S+]([O-])c1ccc(Br)cc1 (stereo not shown) [CBK012927],96.1%,–
Cn1c(C(O)c2ccccc2)n[nH]c1=S (stereo not shown) [CBK012984],117%,–
O=C(O)CCSc1cccc(C(F)(F)F)c1 [CBK012986],111%,–
COc1ccc(CNCCN)cc1 [CBK013010],98.2%,–
CC(C)CC1(C(CN2C(=O)c3ccccc3C2=O)C(=O)NO)CCN(CCc2ccccc2)C1=O (stereo not shown) [CBK013029],103%,–
CC(=O)NC[C@H]1CN(c2ccc(C3CNC3)c(F)c2)C(=O)O1 [CBK013035],82.8%,–
O=C(O)c1ccc(C(=O)Nc2ccc3c(=O)n4c(nc3c2)/C(=C/c2ccccc2)CC4)cc1 [CBK013048],82.3%,–
COc1ccccc1OCCNC1CCc2cc(Cl)ccc2C1 (stereo not shown) [CBK013067C],93.2%,–
CCCCNC(=O)CCCN(CC)CCC1=CC2(CCCC2)c2ccccc21 [CBK013232],91.7%,–
O=C(COc1ccc(Cl)cc1)NCCc1ccc(S(=O)(=O)NC(=O)NC2CCCCC2)cc1 [CBK013261],92.4%,–
NC1CCN(C(=O)c2cc3ccccc3[nH]2)CC1 [CBK013294],89.7%,–
CC(C)N(CC(=O)N(c1ccccc1)c1ccccc1)C(C)C [CBK013303C],96.6%,–
c1ccc2c(c1)/C(=N/OCCCN1CCCCC1)CC21CCCCC1 [CBK013321],108%,–
CN(C)CCCO/N=C1\CC2(CCCC2)c2ccccc21 [CBK013331],80.7%,–
Cc1cc(O)ccc1C(CC(=O)O)c1ccccc1 (stereo not shown) [CBK013350],100%,–
COC1=CC2CCNC(CCCCC3NCCc4cc(OC)c(OC)cc43)C2C=C1OC (stereo not shown) [CBK013354],87%,–
Cc1cc(C(C)(C)C)cc(C)c1S(=O)(=O)NCCSCCN [CBK013357],97.8%,–
Cc1cc(C)c(S(=O)(=O)NCCSCCC(=O)O)c(C)c1 [CBK013358],95.7%,–
c1ccc(Nc2cncc(N3CCNCC3)n2)cc1 [CBK013389],100%,–
FC(F)(F)c1cnc(N2CCNCC2)c(Cl)c1 [CBK013400],92.9%,–
Cc1ccc(Cl)cc1N1CCNCC1 [CBK013402],–,"viability at 28.5 h, 10 µM [1]: 94.6%"
CC(C)(C)OC(=O)N1CCN(c2nccnc2Cl)CC1 [CBK013554],102%,–
COc1c(C(=O)O)cc(C)c2c1CCC2C (stereo not shown) [CBK013617],101%,–
